From ChEMBL document CHEMBL3739257, “Aryl amide small-molecule inhibitors of microRNA miR-21 function” (Bioorg Med Chem Lett, 2015) come the findings set out here.

SMILES strings stand for the structures. Activity calls are given as the source filed them. The calls are words filed in the database; no cut-off is given here.

In test [1] the test system is HeLa. Description: Inhibition of microRNA miR-21 expression in human HeLa cells assessed as reduction of intracellular miR-21 level by measuring luciferase signal relative to control. In kind it is cell-based.
A short description of test [2]: Inhibition of microRNA miR-21 expression in human HeLa cells assessed as luciferase signal at 10 uM after 48 hrs by microplate reader analysis. In kind it is cell-based.
The test system of test [3] is HeLa. Nature of the test: Inhibition of primary microRNA miR-21 expression in human HeLa cells assessed as luciferase signal at 10 uM by qRT-PCR analysis relative to control. The class given is cell-based. (Real-time PCR tracks product formation cycle by cycle.)
Test [4] concerns HeLa. Nature of the test: Inhibition of miR-222 expression in human HeLa cells at 10 uM after 48 hrs by qRT-PCR analysis. The class given is functional, cell-based.
The subject of test [5] is HeLa. Description: Inhibition of microRNA miR-21 expression in human HeLa cells assessed as luciferase signal at 10 uM after 48 hrs by microplate reader analysis relative to control. The class given is cell-based.
Test [6] deals with HeLa. Nature of the test: Inhibition of miR-21 expression in human HeLa cells at 10 uM after 48 hrs by qRT-PCR analysis. In kind it is functional.
The test system of test [7] is HeLa. Nature of the test: Inhibition of miR-125b expression in human HeLa cells at 10 uM after 48 hrs by qRT-PCR analysis. In kind it is functional, cell-based.
The subject of a further test is Lampyridae. Description: Inhibition of firefly luciferase at 10 uM preincubated for 1 hr followed by ATP addition measured after 3 mins by CellTiter-Glo assay. A general note: Cellular ATP, detected with luciferase, serves as a proxy for viable cell number.
The test system of test [8] is HeLa. Nature of the test: Inhibition of miR-17-5p expression in human HeLa cells at 10 uM after 48 hrs by qRT-PCR analysis. The class given is functional, cell-based.
A further test has as its system Huh-7. Nature of the test: Inhibition of microRNA miR-122 expression in human Huh7-psiCHECK cells assessed as luciferase expression at 10 uM after 48 hrs by microplate reader analysis. The class given is cell-based.
For test [9], the system named is HeLa. Nature of the test: Inhibition of microRNA miR-21P transfected in human HeLa cells assessed as luciferase signal at 10 uM. In kind it is cell-based.

In the case of `O=C(NCCc1ccccc1)c1ccc(Oc2ccccc2)cc1`, in the test on HeLa [1], the fold change (FC) turned out to be 1.4.

The term EC50 denotes the midpoint of the concentration-response curve. The inhibition is the share of the control response that was lost under treatment. Regarding `COc1ccc(C(=O)NCCC2=CCCCC2)cc1OC`, the EC50 in test [2] is 10.8 µM. Further, the inhibition result in the test on HeLa [3], with HeLa [4], in the test with HeLa [7], in the test with Lampyridae, in the test on HeLa [8] and with Huh-7 was “inactive” each time. In addition, the inhibition result in the test with HeLa [9] was “inactive”. For the same compound, in the test with HeLa [5], the inhibition was above 100%. For the same compound, in the test on HeLa [6], the inhibition at 10 µM was 17%. In addition, the fold change (FC) in the test with HeLa [1] amounted to 2.01.

`COc1ccc(C(=O)NCCCCc2ccccc2)cc1`: the fold change (FC) in the test with HeLa [1] came out at 1.03.

Regarding `O=C(NCCC1=CCCCC1)c1ccc(O)c(O)c1`, the EC50 in test [2] amounted to 6.1 µM. In addition, the inhibition result in the test with HeLa [3], with HeLa [4], with HeLa [7], in the test with Lampyridae, with HeLa [8] and in the test with Huh-7 was “inactive” in each case. For the same compound, the inhibition result with HeLa [9] was “inactive”. Besides, the inhibition in the test with HeLa [5] was above 100%. The compound further came in with an inhibition at 10 µM in the test on HeLa [6] of 42%. Moreover, the fold change (FC) in the test with HeLa [1] was determined as 2.22.

In the case of `COc1ccc(C(=O)NCCCc2ccccc2)cc1`, in the test with HeLa [1], the fold change (FC) came to 1.94.

On to `O=C(Nc1ccccc1)c1ccccc1`, for which the fold change (FC) with HeLa [1] stood at 1.49.

Take `COc1ccc(NC(=O)c2ccc(OC)cc2)cc1`: the EC50 in test [2] was found to be 0.86 µM. Moreover, the inhibition result in the test with HeLa [3], in the test on HeLa [4], in the test on HeLa [7], with Lampyridae, in the test on HeLa [8] and with Huh-7 was “inactive” each time. Also, in the test on HeLa [9], the inhibition entry was “inactive”. Further, in the test on HeLa [5], the inhibition is above 100%. In addition, in the test on HeLa [6], the inhibition at 10 µM amounted to 61%. Besides, the fold change (FC) with HeLa [1] amounted to 2.88.

In the case of `COc1ccc(C(=O)NCCc2ccc3ccccc3c2)cc1`, in the test on HeLa [1], the fold change (FC) was 1.41.

As for `COc1ccc(C(=O)Nc2ccccc2)cc1`, in test [2], the EC50 is 2.3 µM. Further, the inhibition result with HeLa [3], with HeLa [4], in the test on HeLa [7], in the test with Lampyridae, in the test with HeLa [8] and in the test on HeLa [9] was “inactive” throughout. In addition, the inhibition at 10 µM with HeLa [6] stood at 43%. Also, the fold change (FC) in the test with HeLa [1] amounted to 2.39.

For the compound `O=C(NCCC1=CCCCC1)c1ccccc1`, in the test on HeLa [1], the fold change (FC) is 1.58.

For the compound `CCCNC(=O)c1ccc(OC)c(O)c1`, the fold change (FC) in the test with HeLa [1] came to 1.11.

For the compound `COc1ccc(C(=O)NCCC2=CCCCC2)cc1`, the fold change (FC) in the test on HeLa [1] was determined as 1.05.

With `O=C(NCCC1=CCCCC1)c1ccc(O)cc1`, the fold change (FC) in the test with HeLa [1] is 1.66.

As to `COc1ccc(C(N)=O)cc1`, the fold change (FC) in the test on HeLa [1] was found to be 1.11.

Take `COc1ccc(C(=O)NCCC2CCCCC2)cc1O`: the fold change (FC) with HeLa [1] came out at 1.93.

As to `COc1ccc(C(=O)NCCc2ccccn2)cc1`, the fold change (FC) in the test with HeLa [1] is 1.

With `COc1ccc(C(=O)NCCC2=CCCCC2)cc1O`, the fold change (FC) in the test with HeLa [1] amounted to 1.63.

For `O=C(NCCC1=CCCCC1)c1cccc(O)c1`, in the test with HeLa [1], the fold change (FC) turned out to be 1.61.

Take `COc1ccc(C(=O)NCCC2=CCCCC2)cc1OC(C)=O`: in the test with HeLa [1], the fold change (FC) was 1.83.

`C=CCNC(=O)c1ccc(OC)cc1`: in the test on HeLa [1], the fold change (FC) amounted to 1.28.

For `COc1ccc(C(=O)NCCC2=CCCCC2)cc1OC1CCN(C(C)C)CC1`, in the test on HeLa [1], the fold change (FC) came to 1.36.

Take `COc1ccc(C(=O)NCCc2ccccc2)cc1`: the fold change (FC) in the test with HeLa [1] turned out to be 0.5.

As to `Nc1ccc(C(=O)NCCc2ccccc2)cc1`, the fold change (FC) in the test with HeLa [1] worked out at 1.46.

On to `COc1ccc(C(=O)NCc2ccccc2)cc1`, for which the fold change (FC) with HeLa [1] stood at 1.43.

As to `CCCOc1ccc(C(=O)NCCc2ccccc2)cc1`, the fold change (FC) in the test on HeLa [1] came to 1.36.

For the compound `CCOc1ccc(C(=O)NCCc2ccccc2)cc1`, the fold change (FC) in the test with HeLa [1] was determined as 1.56.

For `COc1ccc(C(=O)NCCc2ccccc2)cc1O`, in the test on HeLa [1], the fold change (FC) came to 0.95.

On to `COc1ccc(C(=O)Nc2ccc3ccccc3c2)cc1`, for which the inhibition with HeLa [5] is above 100%. Further, the fold change (FC) in the test on HeLa [1] was determined as 1.21. For the same compound, in the test with Huh-7, the inhibition entry is “inactive”.
